Results from PubChem BioAssay (NCI).
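Five compound concentrations were applied to cells in 96-well plates for 48 hours; endpoints were derived by simple linear interpolation of the resulting dose-response curve. GI50 = concentration required for 50% inhibition of growth. TGI marks complete inhibition of growth.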

How the values were obtained:
Experiment in all cases: DTP human tumour cell line panel, 48 h
A549 NSCLC = tested on: A549 NSCLC
COLO 205 colon = tested on: COLO 205 colon
HCT-116 colon = tested on: HCT-116 colon
NCI-H522 lung = tested on: NCI-H522 lung
SF-268 CNS = tested on: SF-268 CNS
SK-MEL-28 melanoma = tested on: SK-MEL-28 melanoma
T-47D breast = tested on: T-47D breast
A498 renal = tested on: A498 renal
RXF 393 renal = tested on: RXF 393 renal
BT-549 breast = tested on: BT-549 breast

SMILES | GI50 (A549 NSCLC) [µM] | TGI (A549 NSCLC) [µM] | GI50 (COLO 205 colon) [µM] | TGI (COLO 205 colon) [µM] | GI50 (HCT-116 colon) [µM] | TGI (HCT-116 colon) [µM] | GI50 (NCI-H522 lung) [µM] | TGI (NCI-H522 lung) [µM] | GI50 (SF-268 CNS) [nM] | TGI (SF-268 CNS) [µM] | GI50 (SK-MEL-28 melanoma) [µM] | TGI (SK-MEL-28 melanoma) [µM] | GI50 (T-47D breast) [µM] | TGI (T-47D breast) [µM] | TGI (A498 renal) [µM] | TGI (RXF 393 renal) [µM] | TGI (BT-549 breast) [µM] | GI50 (A498 renal) [µM] | GI50 (RXF 393 renal) [µM] | GI50 (BT-549 breast) [µM]
OC(c1cc(-c2cccc(Cl)c2)nc2ccccc12)C1CCCCN1 (stereo not given) | 1.7 | 3.1 | 1.98 | 3.7 | 1.75 | 3.38 | 1.97 | 3.66 | 1570 | 2.97 | 1.81 | 3.42 | 2.09 | 3.93 | – | – | – | – | – | –
COc1ccc2c(c1)[n+]([O-])c(-c1ccc([N+](=O)[O-])cc1)c(N)[n+]2[O-] | – | > 100 | – | > 100 | – | > 100 | – | 32.9 | – | > 100 | – | > 100 | – | – | > 100 | > 100 | – | – | – | –
CC(=O)Nc1ccc(/C=c2\sc3nnc(CCC(=O)Nc4ccccc4Cl)n3c2=O)cc1 | – | > 100 | – | – | – | > 100 | – | 36.2 | – | 88 | – | 56.5 | – | – | – | 58.7 | – | – | – | –
Cc1ccc(S(=O)(=O)c2ccc(NC(=O)SCCC(=O)O)cc2)cc1 | – | > 100 | – | > 100 | – | > 100 | – | > 100 | – | > 100 | – | > 100 | – | – | > 100 | > 100 | – | – | – | –
COC(=O)C(Cc1nc2ccccc2[nH]c1=O)/C(=N\NC(C)(C)C)C(=O)Nc1c(C)cc(Br)cc1C (stereo not given) | – | > 100 | – | 36.5 | – | 37 | – | 29 | – | 77.7 | – | 51.8 | – | – | 69.5 | – | – | – | – | –
O=C(O)/C=C/C(=O)N1Cc2cc3ccccc3nc2C1 | – | > 100 | – | > 100 | – | > 100 | – | > 100 | – | > 100 | – | > 100 | – | > 100 | – | > 100 | > 100 | – | – | –
Cc1ccc(Cl)cc1Nc1nc(C(F)(F)F)ccc1C(=O)N/N=C/c1cccnc1 | 3.32 | 12.4 | 4.86 | 17.7 | 2.34 | 14.4 | 6.64 | 22.5 | 1550 | 9.32 | 4.24 | 15.8 | 3.16 | 20.8 | 11.7 | 7.5 | – | 2.95 | 1.36 | –
COc1ccccc1NC(=O)C1=C(C)NC(C)=C(C(=O)Nc2ccccc2OC)C1C1=CC=COC1 | – | > 100 | – | > 100 | – | 17.2 | – | – | – | 62.4 | – | 74 | – | – | 45.4 | – | – | – | – | –
CCOC(=O)C1SC(=Nc2cccc(Cl)c2C)N=C1C (stereo not given) | – | 60.4 | – | 38.3 | – | 58.1 | – | 35.2 | – | > 100 | – | > 100 | – | – | > 100 | > 100 | – | – | – | –
C[n+]1c(/C=C/c2c[nH]c3ccccc23)ccc2ccccc21 | 5.38 | 26 | 5.44 | 22.2 | 4.65 | 22.5 | 11.8 | 25.9 | 10400 | 24.2 | 13.8 | 27.3 | – | – | 18.1 | 27.9 | 34.2 | 2.8 | 13.9 | 18.6
NC1=CC(=O)c2cccnc2C1=O | 3.84 | 15 | 3.33 | 11.7 | 1.45 | 3.36 | 0.533 | 2.17 | 1480 | 3.78 | 1.7 | 3.21 | – | – | 23.3 | 3.2 | 2.98 | 10.1 | 1.67 | 1.58
CN1C(=O)CCC2[C@@H]3CC=C4C[C@@H](O)CC[C@]4(C)C3CC[C@@]21C (stereo not given in full) | – | > 100 | – | – | – | > 100 | – | – | – | – | – | > 100 | – | – | > 100 | > 100 | – | – | – | –
c1ccc([CH2][Sn]([CH2]c2ccccc2)([O]c2cccc3cccnc23)[O]c2cccc3cccnc23)cc1 | 0.245 | 0.69 | 0.194 | 0.477 | 0.211 | 1.19 | 0.186 | 0.351 | 1200 | 7.04 | 0.193 | 0.963 | – | – | 0.692 | – | – | 0.429 | – | –
CCN(CC)CC(C)(C)C(=O)/C=C/c1cccc(/C=C/C(=O)C(C)(C)CN(CC)CC)c1 | – | 2.67 | – | 0.821 | – | 1.24 | – | – | – | 1.68 | – | 2.75 | – | – | 2.71 | 1.49 | – | – | – | –
O=S(=O)([O-])c1ccc(N=Cc2ccccc2[O-])cc1.O=S(=O)([O-])c1ccc(N=Cc2ccccc2[O-])cc1.[O]=[U+2]=[O] | > 100 | > 100 | 84.8 | > 100 | 20 | > 100 | > 100 | > 100 | > 100000 | > 100 | > 100 | > 100 | – | – | > 100 | > 100 | – | > 100 | 81.7 | –
CC(C)N1CC2CN(Cc3ccccc3)CC(C1)C2=O | – | > 100 | – | > 100 | – | > 100 | – | > 100 | – | > 100 | – | > 100 | – | – | – | > 100 | > 100 | – | – | –
O=C(/C=C/c1ccco1)c1cc(F)c(Cl)cc1Cl | 22 | 70.7 | 18.6 | 38.4 | 14.9 | 31.6 | 18.4 | 39.5 | 20000 | 45.5 | 22.7 | 50.2 | 18.1 | 56.8 | 39.2 | 37.7 | – | 18.7 | 19.1 | –
COc1cc(/C=C2\C[C@H]3[C@@H]4CC=C5C[C@@H](O)CC[C@]5(C)[C@H]4CC[C@]3(C)[C@H]2O)ccc1OCCN1CCCC1 | 10.9 | 21.6 | 12.9 | > 50 | 8.27 | 24.8 | 18 | > 50 | 9720 | 22.8 | – | – | 19.9 | > 50 | > 50 | 23.9 | – | 25.1 | 9.81 | –
C=CC(=O)NCCSCCCOC1(C(=O)O)CC(O)C(NC(C)=O)C(C(O)C(O)CO)O1 (stereo not given) | – | > 100 | – | > 100 | – | > 100 | – | > 100 | – | – | – | > 100 | – | – | – | > 100 | – | – | – | –
